The source of these data is patent US8163756B2 (priority 2004, dated 2012).

Holding throughout (type): biochemical
Test [1] addresses KDR kinase (Homo sapiens, UniProt P35968, DEL940-989/E990V). Description: KDR kinase assay K1 (pyruvate kinase/lactate dehydrogenase coupled, spectrophotometric). The conditions noted are these: Method K1; read-out: KDR Data (IC50). On the procedure: (§1) IC50 values were calculated from a series of percent inhibition values determined at a range of inhibitor concentrations using software routines as implemented in the GraphPad Prism software package.

In test [2] the target is B-Raf(V599E) kinase (Homo sapiens, UniProt P15056, V600E). As to the kind of experiment: B-Raf(V599E) kinase assay B1 (construct 1, MEK1 substrate, coupled spectrophotometric). On the procedure:
The test compounds were incubated with the reaction mixtureat 30° C. for 2 h. […] The reaction rate was calculated using the […] time frame. […] IC50 values were calculated from a series of percent inhibition values determined at a range of inhibitor concentrations using software routines as implemented in the GraphPad Prism software package.

The target of test [3] is T1, Abl kinase (Homo sapiens, UniProt P00519).
T1 sequence (P00519 229-512): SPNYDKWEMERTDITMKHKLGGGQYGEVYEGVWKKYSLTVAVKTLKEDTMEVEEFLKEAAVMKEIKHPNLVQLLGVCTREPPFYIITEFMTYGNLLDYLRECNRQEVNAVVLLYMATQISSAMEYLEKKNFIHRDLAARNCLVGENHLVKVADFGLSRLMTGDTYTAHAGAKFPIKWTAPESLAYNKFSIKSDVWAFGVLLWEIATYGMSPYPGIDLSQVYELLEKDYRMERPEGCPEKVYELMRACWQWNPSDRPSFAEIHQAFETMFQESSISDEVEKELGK
Description: Abl kinase assay A1 (pyruvate kinase/lactate dehydrogenase coupled, spectrophotometric). The settings on record: Method A1; for IC50: read-out: Abl Data (IC50). On the procedure: as §1

Test [4] concerns the target phosphorylated p-38-alpha kinase (Homo sapiens, UniProt Q16539). As to the kind of experiment: P-38 alpha kinase assay P1 (coupled spectrophotometric, 2 h pre-incubation). The conditions noted are these: method P1 (2 h pre-incubation); read-out: P-38 Data.

By inhibition is commonly meant the relative decrease from the control value, in per cent.

B-Raf(V599E) kinase, sequence (P15056 with tags, fused parts or gaps V600E): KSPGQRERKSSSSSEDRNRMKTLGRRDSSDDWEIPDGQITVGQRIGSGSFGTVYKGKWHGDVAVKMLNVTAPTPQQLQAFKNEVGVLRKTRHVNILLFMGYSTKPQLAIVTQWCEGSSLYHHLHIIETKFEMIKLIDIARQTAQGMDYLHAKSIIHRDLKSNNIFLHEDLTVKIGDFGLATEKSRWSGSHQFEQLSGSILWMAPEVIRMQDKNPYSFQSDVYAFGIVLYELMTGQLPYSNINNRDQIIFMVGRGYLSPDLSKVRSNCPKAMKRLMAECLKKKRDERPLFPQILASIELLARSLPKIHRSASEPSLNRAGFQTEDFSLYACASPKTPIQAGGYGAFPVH
KDR kinase, sequence (P35968 with tags, fused parts or gaps DEL940-989/E990V): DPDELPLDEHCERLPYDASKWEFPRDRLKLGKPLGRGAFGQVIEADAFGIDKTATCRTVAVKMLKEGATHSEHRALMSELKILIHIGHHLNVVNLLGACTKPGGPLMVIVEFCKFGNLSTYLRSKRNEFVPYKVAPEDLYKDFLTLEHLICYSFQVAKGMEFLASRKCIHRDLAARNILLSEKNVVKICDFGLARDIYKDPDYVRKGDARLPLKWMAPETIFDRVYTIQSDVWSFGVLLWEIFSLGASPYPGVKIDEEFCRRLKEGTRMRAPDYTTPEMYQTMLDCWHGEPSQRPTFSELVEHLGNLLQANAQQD
phosphorylated p-38-alpha kinase, sequence (Q16539 1-360 isoform Q16539-2): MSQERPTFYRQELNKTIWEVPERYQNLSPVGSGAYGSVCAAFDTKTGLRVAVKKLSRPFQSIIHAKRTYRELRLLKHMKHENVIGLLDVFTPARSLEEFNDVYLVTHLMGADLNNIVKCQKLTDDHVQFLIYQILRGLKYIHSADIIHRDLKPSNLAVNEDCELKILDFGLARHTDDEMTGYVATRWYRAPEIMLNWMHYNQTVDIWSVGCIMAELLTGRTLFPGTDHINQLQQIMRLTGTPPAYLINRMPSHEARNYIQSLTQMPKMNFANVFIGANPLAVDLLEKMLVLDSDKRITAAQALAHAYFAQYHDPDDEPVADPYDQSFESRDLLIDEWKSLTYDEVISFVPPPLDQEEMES

`CC(C)(C)c1cc(NC(=O)Nc2cc(F)c(F)cc2F)n(-c2cc(CNC(N)=O)c3ccccc3c2)n1` [Example 297]: the results for the IC50 in test [1] and in test [2] were 270 nM and 3.2 nM, respectively.

Turning to `CC(C)(C)c1cc(NC(=O)Nc2cc(F)c(F)cc2F)n(-c2cccc(C(=N)N)c2)n1` [Example 214, 1-(3-t-butyl-1-(3-carbamimidoylphenyl)-1H-pyrazol-5-yl)-3-(2,4,5-trifluorophenyl)urea], the IC50 in test [1] was 840 nM.

Turning to `CC(C)(C)c1cc(NC(=O)Nc2ccc(Cl)cc2)n(-c2cc(CN)c3ccccc3c2)n1` [Example 68, 1-[1-(4-(aminomethyl)naphthalen-2-yl)-3-t-butyl-1H-pyrazol-5-yl]-3-(4-chlorophenyl)urea], the IC50 turned out to be 1400 nM in test [1] and 24 nM in test [2].

Take `CC(=O)c1cc(-n2nc(C(C)(C)C)cc2NC(=O)Nc2cccc(Cl)c2Cl)cc2ccccc12` [Example 100, 1-(1-(4-acetylnaphthalen-2-yl)-3-t-butyl-1H-pyrazol-5-yl)-3-(2,3-dichlorophenyl)urea]: the IC50 in test [3] is 150 nM; in test [4] it was 5 nM; in test [2] it was 6.9 nM.

Take `CC(C)(C)c1cc(NC(=O)Nc2cccc(F)c2F)n(-c2ccc3c(c2)CCN3)n1` [Example 307, 1-(3-t-butyl-1-(indolin-5-yl)-1H-pyrazol-5-yl)-3-(2,3-difluorophenyl)urea]: the IC50 is 720 nM in test [1] and 10 nM in test [2].

`CC(C)(C)c1cc(NC(=O)Nc2ccccc2)n(-c2ccc3c(c2)CCC(=O)N3)n1` [Example 319, 1-(3-t-butyl-1-(2-oxo-1,2,3,4-tetrahydro-quinolin-6-yl)-1H-pyrazol-5-yl)-3-phenylurea]: the IC50 came out at 4300 nM in test [1] and 32 nM in test [2].

For `CC(C)(C)c1cc(NC(=O)Nc2cc(F)c(F)cc2F)n(-c2cccc(C#N)c2)n1` [Example 207, 1-(3-t-butyl-1-(3-cyanophenyl)-1H-pyrazol-5-yl)-3-(2,4,5-trifluorophenyl)urea], in test [1], the IC50 was 340 nM.

In the case of `CC(C)(C)c1cc(NC(=O)Nc2cccc(Cl)c2)n(-c2cccc(CCN)c2)n1` [Example 257, 1-{1-[3-(2-aminoethyl)phenyl]-3-t-butyl-1H-pyrazol-5-yl}-3-(3-chlorophenyl)urea], the results for the IC50 in test [1] and in test [2] were 6600 nM and 62 nM, respectively.

For `CC(C)(C)c1cc(NC(=O)Nc2ccc(F)cc2)n(-c2cc(CC(N)=O)c3ccccc3c2)n1` [Example 84, 1-(1-(4-(2-amino-2-oxoethyl)naphthalen-2-yl)-3-t-butyl-1H-pyrazol-5-yl)-3-(4-fluorophenyl)urea], the IC50 in test [3] worked out at 390 nM; in test [2], 11 nM.

On to `CC(C)(C)c1cc(NC(=O)Nc2cccc(Cl)c2Cl)n(-c2ccc(CC(=O)N3CCS(=O)(=O)CC3)cc2)n1` [Example 495], for which the figures for the IC50 in test [1] and in test [2] were 1500 nM and 55 nM, respectively.

With `CC(C)(C)c1cc(NC(=O)Nc2ccc(F)c(F)c2F)n(-c2ccc3ncccc3c2)n1` [Example 285, 1-(3-t-butyl-(quinolin-6-yl)-1H-pyrazol-5-yl)-3-(2,3,4-trifluorophenyl)urea], the IC50 in test [1] was determined as 380 nM; in test [2], 5.1 nM.

For the compound `CC(C)(C)c1cc(NC(=O)Nc2cccc(C#N)c2)n(-c2ccc3c(c2)CCN3)n1` [Example 111, 1-(3-t-butyl-1-(indolin-5-yl)-1H-pyrazol-5-yl)-3-(3-cyanophenyl)urea], the IC50 came to 620 nM in test [3] and 97 nM in test [2].

Turning to `CC(C)(C)c1cc(NC(=O)Nc2ccsc2)n(-c2ccc3c(c2)CCC(=O)N3)n1` [Example 316, 1-(3-t-butyl-1-(2-oxo-1,2,3,4-tetrahydro-quinolin-6-yl)-1H-pyrazol-5-yl)-3-(thiophen-3-yl)urea], the results for the IC50 in test [1] and in test [2] were 12900 nM and 66 nM, respectively.

On to `CC(C)(C)c1cc(NC(=O)Nc2cccc(Cl)c2Cl)n(-c2cc(CC(N)=O)c3ccccc3c2)n1` [Example 78, 2-(3-{3-t-butyl-5-[3-(2,3-dichlorophenyl)ureido]pyrazol-1-yl}naphthalen-1-yl)acetamide], for which the figures for the IC50 in test [3] and in test [2] were 72 nM and 3.5 nM, respectively.

Regarding `CC(C)(C)c1cc(NC(=O)Nc2cc(F)cc(F)c2F)n(-c2cc(CN)c3ccccc3c2)n1` [Example 70, 1-(1-(4-(aminomethyl)naphthalen-2-yl)-3-t-butyl-1H-pyrazol-5-yl)-3-(2,3,5-trifluorophenyl)urea], the IC50 amounted to 50 nM in test [3] and 5 nM in test [2].

For the compound `COc1cccc(-n2nc(C(C)(C)C)cc2NC(=O)Nc2cccc(C#N)c2)c1` [Example 17, 1-(3-t-butyl-1-(3-methoxyphenyl)-1H-pyrazol-5-yl)-3-(3-cyanophenyl)urea], the IC50 in test [3] was 370 nM; in test [2] it was 89 nM.

In the case of `CC(C)(C)c1cc(NC(=O)Nc2cccc(Cl)c2Cl)n(-c2ccc3c(c2)C(=O)CC3)n1` [Example 102, 1-[5-t-butyl-2-(3-oxo-indan-5-yl)-2H-pyrazol-3-yl]-3-(2,3-dichlorophenyl)urea], the IC50 in test [3] was 110 nM; in test [2], 2.5 nM.

On to `CC(C)(C)c1cc(NC(=O)Nc2cccc(C#N)c2)n(-c2ccc3c(c2)NCC3)n1` [Example 114, 1-(3-t-butyl-1-(indolin-6-yl)-1H-pyrazol-5-yl)-3-(3-cyanophenyl)urea], for which the IC50 in test [3] stood at 640 nM; in test [2], 115 nM.

In the case of `CC(C)(C)c1cc(NC(=O)Nc2ccc(Cl)cc2)n(-c2ccc3c(c2)CN(C(=O)NS(C)(=O)=O)CC3)n1` [Example 128, N-(7-{3-t-butyl-5-[3-(4-chloro-phenyl)ureido]pyrazol-1-yl}-3,4-dihydro-1H-isoquinoline-2-carbonyl)methane-sulfonamide], the IC50 in test [3] is 7500 nM; in test [2] it was 67 nM.

In the case of `CC(C)(C)c1cc(NC(=O)Nc2cc(F)c(F)cc2F)n(-c2cc(CO)c3ccccc3c2)n1` [Example 64, 1-(3-t-butyl-1-(4-(hydroxymethyl)naphthalen-2-yl)-1H-pyrazol-5-yl)-3-(2,4,5-trifluorophenyl)urea], the IC50 turned out to be 63 nM in test [3] and 3.3 nM in test [2].

As for `CC(C)(C)c1cc(NC(=O)Nc2cccc(Cl)c2)n(-c2cccc(CN)c2)n1` [Example 227, 1-{1-[3-(aminomethyl)phenyl]-3-t-butyl-1H-pyrazol-5-yl}-3-(3-chloro-phenyl)urea], the IC50 in test [1] stood at 9300 nM; in test [2], 61 nM.

For the compound `CC(C)(C)c1cc(NC(=O)Nc2ccccc2)n(-c2ccc3ncccc3c2)n1` [Example 282, 1-[3-t-butyl-1-(quinolin-6-yl)-1H-pyrazol-5-yl]-3-phenylurea], the IC50 in test [1] was 2400 nM; in test [2], 41 nM.

For `CC(C)(C)c1cc(NC(=O)Nc2ccc(F)c(F)c2F)n(-c2cc(CC(N)=O)c3ccccc3c2)n1` [Example 80, 1-(1-(4-(2-amino-2-oxoethyl)naphthalen-2-yl)-3-t-butyl-1H-pyrazol-5-yl)-3-(2,3,4-trifluorophenyl)urea], the IC50 was determined as 79 nM in test [3] and 4.5 nM in test [2].

As for `CC(C)(C)c1cc(NC(=O)Nc2cccc(Cl)c2Cl)n(-c2ccc3[nH]c(=O)ccc3c2)n1` [Example 155, 1-(3-t-butyl-1-(2-oxo-1,2-dihydroquinolin-6-yl)-1H-pyrazol-5-yl)-3-(2,3-dichlorophenyl)-urea], the IC50 in test [3] amounted to 260 nM; in test [4], 110 nM; in test [2], 1.4 nM.

For the compound `CC(C)(C)c1cc(NC(=O)Nc2cccc(Cl)c2Cl)n(-c2ccc3c(c2)C(N)CC3)n1` (stereo not drawn) [Example 105, 1-[2-(3-amino-indan-5-yl)-5-t-butyl-2H-pyrazol-3-yl]-3-(2,3-dichlorophenyl)urea], the IC50 in test [3] is 240 nM; in test [2], 12 nM.

As for `CC(C)(C)c1cc(NC(=O)Nc2cccc(F)c2F)n(-c2cccc(CO)c2)n1` [Example 220, 1-{3-t-butyl-1-[3-(hydroxymethyl)phenyl]-1H-pyrazol-5-yl}-3-(2,3-difluorophenyl)urea], the IC50 came out at 950 nM in test [1] and 33 nM in test [2].

Consider `CC(C)(C)c1cc(NC(=O)Nc2ccc(F)cc2F)n(-c2ccc3c(c2)CCNC3)n1` [Example 145, 1-(3-t-butyl-1-(1,2,3,4-tetrahydroiso-quinolin-6-yl)-1H-pyrazol-5-yl)-3-(2,4-difluorophenyl)-urea], for which the IC50 in test [3] came out at 410 nM; in test [2], 13 nM.

In the case of `CC(=O)N1CCc2cc(-n3nc(C(C)(C)C)cc3NC(=O)Nc3cccc(Cl)c3Cl)ccc21` [Example 107, 1-(1-(1-acetylindolin-5-yl)-3-t-butyl-1H-pyrazol-5-yl)-3-(2,3-dichlorophenyl)urea], the IC50 was 180 nM in test [3] and 2.1 nM in test [2].

As to `CC(C)(C)c1cc(NC(=O)Nc2cc(F)c(F)cc2F)n(-c2cc(CN)c3ccccc3c2)n1` [Example 71, 1-(1-(4-(aminomethyl)naphthalen-2-yl)-3-t-butyl-1H-pyrazol-5-yl)-3-(2,4,5-trifluorophenyl)urea], the figures for the IC50 in test [3] and in test [2] were 90 nM and 4.1 nM, respectively.

As to `CCOC(=O)Cc1cc(-n2nc(C(C)(C)C)cc2NC(=O)Nc2cccc(Cl)c2Cl)cc2ccccc12` [Example 76], the inhibition at 10 µM in test [3] (@ 10 μM, read-out: Abl Data (percent inhibition)) worked out at 31%. The IC50 in test [2] was found to be 11 nM.
